Consider one compound from PMC8808171, “Nonselective TRPC channel inhibition and suppression of aminoglycoside-induced premature termination codon readthrough by the small molecule AC1903” (The Journal of Biological Chemistry, 2022).

Molecules are shown by their SMILES. pIC50: −log10 of the molar value. “Also recorded” adds a separate entry of the source.

One series concerns TRPC4 channels. On the set-up: method as in PubChem AID 434942 – SID 865888. The conditions noted are these: ref PubChem AID 434942 – SID 865888; cited from earlier work.
In a further series the test system is A498 cells. Briefly: Cell viability assay (WST-1), A498 cells, AC1903 alone. In kind it is cell-based. Conditions: 0.1–100 μM, 8 h. The procedure: Cell viability assays were carried out using WST-1 Cell Proliferation Reagent (Merck). A498 cells were plated onto clear 96-well plates at 4000 cells per well and left to adhere for 24 h. Media was then removed, and replaced with fresh media containing 100 nM EA, in presence of either DMSO or 0.1 to 100 μM AC1903. Control wells were treated with vehicle (DMSO) only. To exclude any potential cytotoxic effects of AC1903 itself, cells were incubated with 0.1 to 100 μM AC1903 in absence of EA. Cells were treated in triplicate. Cells were incubated with compounds for 8 h. After 8 h, treatment media was removed and media containing WST-1 reagent (10 μl reagent +100 μl media per well) was added to each well and incubated for 1.5 h at 37 °C. Blank wells contained media and WST-1 reagent (no cells). […] Absorbance was then read at 440 nm and 650 nm (reference wavelength). To analyze data, the value of the 650 nm was subtracted from that of the 440 nm reading. Values across triplicate wells were averaged, and the value from the blank wells subtracted to account for background absorbance. […]
Inhibition of G418-induced premature stop codon readthrough
A498 cytotoxicity . […] Cell viability was calculated as % of control, and the effect of AC1903 was compared to control (0 µM ) (scatter plots showing data from three independent experiments; bars represent mean ± SD; n = 3). […]
For orientation: Tetrazolium dyes change colour on reduction, which living cells bring about.

Another series concerns DMS-114 cells. Description: Measurement of intracellular G418 (gentamicin ELISA) in DMS-114 cells. The class given is cell-based, human. Conditions: 150 μM AC1903 (Fig. 2D). How it is done: Figure 2 Effect of AC1903 on PTC readthrough and G418 trafficking.A and B, DMS-114 (A) or TC-71 (B) cells were pretreated with indicated concentrations of AC1903 for 3 h followed by exposure to 400 μg/ml G418. After 3 h medium was replenished and at 24 h cell lysates were prepared and p53 levels were measured. C and E, DMS-114 (C) or JEB01 (E) cells were either left untreated or pretreated with 150 μM AC1903 for 3 h followed by exposure to indicated concentrations of G418 for another 3 h. At 24 h cell lysates were prepared and p53 (C) or Collagen XVII (E) levels were measured. In panels A–C, protein levels were measured by automated capillary electrophoresis Western analysis (using vinculin as loading control). In panel E, protein levels were measured by Western blot (using beta-actin as loading control). […] D, total intracellular levels of G418 were measured in the same lysates as in (C) (n = 5; data normalized to the highest response in each experiment; bars represent mean ± SD). F, total intracellular levels of G418 were measured in the same lysates as in (E) (n = 2; data normalized to the highest response in each experiment; bars represent mean ± SD). ∗ indicates statistically significant difference between samples according to one-way ANOVA (p < 0.05). […]

For orientation: pIC50 means the negative decadic logarithm of the IC50, by convention in mol/L.

On to `c1ccc(Cn2c(NCc3ccco3)nc3ccccc32)cc1` [AC1903], for which the pIC50 with TRPC4 channels is 6.22. Also, in the series with A498 cells, the “effect on viability of A498 cells” value is on record as “not toxic; also recorded: did not affect viability”. The “intracellular G418 levels in the presence of AC1903” value in the series with DMS-114 cells was “significantly decreased”.
